From US9513294B2, “Megastokes amino-triazolyl-BODIPY compounds and applications to live neuron staining and human serum albumin FA1 drug site probing” (National University of Singapore, priority 2012, dated 2016)
Blank lines part the entries; values can stand above or below the compound they belong to.

Assays:
[1] = Absorbance and fluorescence emission spectra (SpectraMax M2); assay type: physicochemical; conditions: for λmax Abs. (nm) / λmax Em. (nm): MKAC compound library; for λmax Abs. (nm) / λmax Absorp. (nm): absorbance maximum; for λmax Em. (nm) / λmax Emission (nm): fluorescence emission maximum; for λmax Absorp. (nm) / λmax Emission (nm): MKCA compound library
Method in brief: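 Spectroscopic data, including quantum yields, were recorded with a SpectraMax M2 instrument and analysed in GraphPrism.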

[2] = Quantum yield measurements versus Acridine Yellow in EtOH; assay type: physicochemical; conditions: for φ (quantum yield): excitation 460 nm; for φ (%): quantum yield
Method in brief: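 Emission areas integrated over 510–700 nm were compared with Acridine Yellow in ethanol (Φ=0.47), all excited at 460 nm. The comparative equation was normalized to excitation-wavelength absorbance and solvent refractive index.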

SMILES: CCCCCC(O)c1cn(-c2ccc3n2[B-](F)(F)[N+]2=C(NCc4cc(OC)ccc4OC)C=CC2=C3c2ccc(N)cc2)nn1 (stereo not drawn) [MK181-69]
λmax Absorp. ([1]; MK library, Table 5): 473 nm
λmax Emission ([1]; MK library, Table 5): 563 nm
φ (quantum yield) ([2]; MK library, Table 5): 0.86%

SMILES: CC(C)CCc1cn(-c2ccc3n2[B-](F)(F)[N+]2=C(N4CCCCC4)C=CC2=C3c2ccc(N)cc2)nn1 [BDC-36]
λmax Absorp. ([1]; BDC library, Table 2): 476 nm
λmax Emission ([1]; BDC library, Table 2): 590 nm
φ (quantum yield) ([2]; BDC library, Table 2): 0.11%

SMILES: CCCc1cn(-c2ccc3n2[B-](F)(F)[N+]2=C(N4CC(C)OC(C)C4)C=CC2=C3c2ccc(N)cc2)nn1 (stereo not drawn) [MK20-48]
λmax Absorp. ([1]; MK library, Table 5): 476 nm
λmax Emission ([1]; MK library, Table 5): 580 nm
φ (quantum yield) ([2]; MK library, Table 5): 0.25%

SMILES: CC(=O)Nc1ccc(C2=C3C=CC(N4CCCCC4)=[N+]3[B-](F)(F)n3c2ccc3-n2cc(C3=CCCCC3)nn2)cc1 [BDCAC-37]
λmax Absorp. ([1]; BDCAC library, Table 3): 466 nm
λmax Emission ([1]; BDCAC library, Table 3): 565 nm
φ (quantum yield) ([2]; BDCAC library, Table 3): 1.9%

SMILES: Nc1ccc(C2=C3C=CC(N4CCCCC4)=[N+]3[B-](F)(F)n3c2ccc3-n2cc(-c3ccc(F)cc3F)nn2)cc1 [BDC-26]
λmax Absorp. ([1]; BDC library, Table 2): 473 nm
λmax Emission ([1]; BDC library, Table 2): 585 nm
φ (quantum yield) ([2]; BDC library, Table 2): 0.12%

SMILES: CCCCc1cn(-c2ccc3n2[B-](F)(F)[N+]2=C(N4CCCCC4)C=CC2=C3c2ccc(NC(=O)CCl)cc2)nn1 [BDCCA-42]
λmax Absorp. ([1]; BDCCA library, Table 4): 467 nm
λmax Emission ([1]; BDCCA library, Table 4): 577 nm
φ (quantum yield) ([2]; BDCCA library, Table 4): 1.3%

SMILES: CCCCc1ccc(-c2cn(-c3ccc4n3[B-](F)(F)[N+]3=C(N5CCCCC5)C=CC3=C4c3ccc(NC(=O)CCl)cc3)nn2)cc1 [BDCCA-12]
λmax Absorp. ([1]; BDCCA library, Table 4): 464 nm
λmax Emission ([1]; BDCCA library, Table 4): 552 nm
φ (quantum yield) ([2]; BDCCA library, Table 4): 1.6%

SMILES: CN(Cc1ccccc1)Cc1cn(-c2ccc3n2[B-](F)(F)[N+]2=C(N(C)Cc4ccccc4)C=CC2=C3c2ccc(N)cc2)nn1 [MK195-18]
λmax Absorp. ([1]; MK library, Table 5): 475 nm
λmax Emission ([1]; MK library, Table 5): 580 nm
φ (quantum yield) ([2]; MK library, Table 5): 0.52%

SMILES: CCCc1cn(-c2ccc3n2[B-](F)(F)[N+]2=C(N4CCc5ccccc5C4)C=CC2=C3c2ccc(N)cc2)nn1 [MK66-48]
λmax Absorp. ([1]; MK library, Table 5): 480 nm
λmax Emission ([1]; MK library, Table 5): 581 nm
φ (quantum yield) ([2]; MK library, Table 5): 0.12%

SMILES: CCCCCC(O)c1cn(-c2ccc3n2[B-](F)(F)[N+]2=C(N4CCCCC4)C=CC2=C3c2ccc(NC(C)=O)cc2)nn1 (racemic) [BDCAC-69]
λmax Absorp. ([1]; BDCAC library, Table 3): 468 nm
λmax Emission ([1]; BDCAC library, Table 3): 587 nm
φ (quantum yield) ([2]; BDCAC library, Table 3): 0.8%

SMILES: Nc1ccc(C2=C3C=CC(N4CCCCC4)=[N+]3[B-](F)(F)n3c2ccc3-n2cc(C3CC3)nn2)cc1 [BDC-4]
λmax Absorp. ([1]; BDC library, Table 2): 475 nm
λmax Emission ([1]; BDC library, Table 2): 590 nm
φ (quantum yield) ([2]; BDC library, Table 2): 0.16%

Second part, the compound after the results:

λmax Abs. (nm) [1]: 467 nm
λmax Em. (nm) [1]: 561 nm
φ (%) ([2]; MKAC compound library): 22.19%
SMILES: CCCc1cn(-c2ccc3n2[B-](F)(F)[N+]2=C(NCc4cc(F)cc(F)c4)C=CC2=C3c2ccc(NC(C)=O)cc2)nn1 [MKAC412-48]

λmax Abs. (nm) [1]: 467 nm
λmax Em. (nm) [1]: 560 nm
φ (%) ([2]; MKAC compound library): 3.467%
SMILES: CCCCCC(O)c1cn(-c2ccc3n2[B-](F)(F)[N+]2=C(N(C)Cc4ccccc4)C=CC2=C3c2ccc(NC(C)=O)cc2)nn1 (racemic) [MKAC195-69]

λmax Absorp. (nm) [1]: 468 nm
λmax Emission (nm) [1]: 581 nm
φ (%) ([2]; MKCA compound library): 4.60%
SMILES: CC1CN(C2=[N+]3C(=C(c4ccc(NC(=O)CCl)cc4)c4ccc(-n5cc(C6CCCC6)nn5)n4[B-]3(F)F)C=C2)CC(C)O1 (stereo not drawn) [MKCA20-5]

λmax Absorp. ([1]; MK library, Table 5): 471 nm
λmax Emission ([1]; MK library, Table 5): 595 nm
φ (quantum yield) ([2]; MK library, Table 5): 0.22%
SMILES: Nc1ccc(C2=C3C=CC(N4CCCC4)=[N+]3[B-](F)(F)n3c2ccc3-n2cc(CO)nn2)cc1 [MK215-70]

λmax Abs. (nm) [1]: 461 nm
λmax Em. (nm) [1]: 569 nm
φ (%) ([2]; MKAC compound library): 3.81%
SMILES: CCCC(C)c1cn(-c2ccc3n2[B-](F)(F)[N+]2=C(N4CCCC4)C=CC2=C3c2ccc(NC(C)=O)cc2)nn1 (racemic) [MKAC215-3]

λmax Abs. (nm) [1]: 464 nm
λmax Em. (nm) [1]: 562 nm
φ (%) ([2]; MKAC compound library): 21.57%
SMILES: CCCC(C)c1cn(-c2ccc3n2[B-](F)(F)[N+]2=C(NCc4ccccc4C)C=CC2=C3c2ccc(NC(C)=O)cc2)nn1 (stereo not drawn) [MKA101-3]

λmax Absorp. (nm) [1]: 464 nm
λmax Emission (nm) [1]: 562 nm
φ (%) ([2]; MKCA compound library): 30.95%
SMILES: Cc1ccccc1CNC1=[N+]2C(=C(c3ccc(NC(=O)CCl)cc3)c3ccc(-n4cc(CC5CCCCC5)nn4)n3[B-]2(F)F)C=C1 [MKCA101-8]

λmax Abs. (nm) [1]: 467 nm
λmax Em. (nm) [1]: 579 nm
φ (%) ([2]; MKAC compound library): 3.12%
SMILES: CC(=O)Nc1ccc(C2=C3C=CC(N4CC(C)OC(C)C4)=[N+]3[B-](F)(F)n3c2ccc3-n2cc(CCc3ccccc3)nn2)cc1 (stereo not drawn) [MKAC20-19]

λmax Absorp. (nm) [1]: 463 nm
λmax Emission (nm) [1]: 562 nm
φ (%) ([2]; MKCA compound library): 33.37%
SMILES: Cc1ccccc1CNC1=[N+]2C(=C(c3ccc(NC(=O)CCl)cc3)c3ccc(-n4cc(CCc5ccccc5)nn4)n3[B-]2(F)F)C=C1 [MKCA101-19]

λmax Absorp. (nm) [1]: 464 nm
λmax Emission (nm) [1]: 563 nm
φ (%) ([2]; MKCA compound library): 36.82%
SMILES: CCOc1ccccc1CNC1=[N+]2C(=C(c3ccc(NC(=O)CCl)cc3)c3ccc(-n4cc(CCc5ccccc5)nn4)n3[B-]2(F)F)C=C1 [MKCA103-19]

λmax Abs. (nm) [1]: 469 nm
λmax Em. (nm) [1]: 578 nm
φ (%) ([2]; MKAC compound library): 2.20%
SMILES: CC(=O)Nc1ccc(C2=C3C=CC(N4CCc5ccccc5C4)=[N+]3[B-](F)(F)n3c2ccc3-n2cc(CC3CCCCC3)nn2)cc1 [MKAC66-8]

λmax Absorp. (nm) [1]: 465 nm
λmax Emission (nm) [1]: 560 nm
φ (%) ([2]; MKCA compound library): 25.80%
SMILES: COc1ccc(OC)c(CNC2=[N+]3C(=C(c4ccc(NC(=O)CCl)cc4)c4ccc(-n5cc(C6CCCC6)nn5)n4[B-]3(F)F)C=C2)c1 [MKCA181-5]

λmax Absorp. (nm) [1]: 462 nm
λmax Emission (nm) [1]: 580 nm
φ (%) ([2]; MKCA compound library): 3.03%
SMILES: CN(Cc1ccccc1)Cc1cn(-c2ccc3n2[B-](F)(F)[N+]2=C(N(C)Cc4ccccc4)C=CC2=C3c2ccc(NC(=O)CCl)cc2)nn1 [MKCA195-18]

λmax Abs. (nm) [1]: 466 nm
λmax Em. (nm) [1]: 561 nm
φ (%) ([2]; MKAC compound library): 27.73%
SMILES: CCCC(C)c1cn(-c2ccc3n2[B-](F)(F)[N+]2=C(NCc4cc(F)cc(F)c4)C=CC2=C3c2ccc(NC(C)=O)cc2)nn1 (stereo not drawn) [MKAC412-3]

λmax Absorp. (nm) [1]: 463 nm
λmax Emission (nm) [1]: 564 nm
φ (%) ([2]; MKCA compound library): 2.66%
SMILES: O=C(CCl)Nc1ccc(C2=C3C=CC(N4CCCC4)=[N+]3[B-](F)(F)n3c2ccc3-n2cc(CC3CCCCC3)nn2)cc1 [MKCA215-8]
